Reference: patent publication US20250122207A1, “AP2 ASSOCIATED KINASE 1 INHIBITORS AND USES THEREOF” (Satellos Bioscience Inc., priority 2023, published 2025)
pIC50: −log10 of the molar value. Where two headings read alike, the source gives them in different places.

What was measured:
[1] = biological target: T1, AAK1 (amino acids T27-A365) (Homo sapiens, UniProt Q2M2I8); assay: AAK1 pSENs assay; assay type: biochemical
T1 construct: against AAK1 (amino acids T27-A365); 6His (N, cleaved yes)
Method: (§1) The recombinant proteins were independently expressed in Escherichia coli BL21(DE3) cells cultured in Luria-Bertani (LB) medium until OD600 reached 0.6-0.8, then cooled to 15° C. and supplemented with 0.5 mM isopropyl 1-thio-D-galactopyranoside (IPTG) induce protein expression 16 h. Cells were harvested and resuspended in lysis buffer (50 mM HEPES pH 7.5, 500 mM NaCl, 5 mM imidazole, 5% glycerol, 0.5 mM Tris (2-carboxyethyl) phosphine (TCEP), cOmplete Protease Inhibitor Tablet (Roche)) and lysed by microfludics high pressure homogenizer (UH-06, Union-Biotech). Proteins were purified using […] chromatography (His FF column, Bestchrom) and eluted stepwise in binding buffer with 20-300 mM imidazole. Removal of the hexahistidine tag was performed at 4° C. overnight using recombinant TEV protease and reacted with BirA to obtain the corresponding biotinylated-AAK1, BIKE or GAK proteins. Further separated in the reverse Strep column (Strep-Tactin® XT, IBA). The Biotin elution sample was collected containing untagged biotinylated protein was then purified by Ion-exchange chromatography (Mono Q 10/100 GL, Cytiva) and Size-exclusion chromatography (HiLoad 16/600 Superdex 200 pg, Cytiva). The pure protein was stored in a storage buffer 50 mM HEPES (pH 7.5), 300 mM NaCl, 5% glycerol at −80° C. Protein were characterized by SDS-PAGE, LC-MS and aSEC.
(§2) This example describes one illustrative method for determining the IC50 of the compounds of the present invention against AAK1 (amino acids T27-A365). AAK1 protein was dissolved at 20 nM in 1× enzyme solution (50 mM HEPES pH7.5, 10 mM MgCl2, 1 mM DTT, 1% glycerol, 0.5 mM EGTA, 0.01% Briji35, 0.02% BSA) and 12.5 ul was incubated with 250 nl DMSO or 250 nl compound in DMSO at 25° C. for 15 min. The reaction was started by addition of 12.5 ul of 30 uM AQT0759 (Assayquant, CSKS-AQT0759B) and 70 uM ATP which were diluted in 1× substrate dilution buffer (50 mM HEPES pH7.5, 10 mM MgCl2, 1 mM DTT, 1% glycerol, 0.5 mM EGTA, 0.01% Briji35).

AAK1 = AAK1 (Homo sapiens, UniProt Q2M2I8); assay: pAP2M1 cell-based assay (in-cell Western)
From the text: pAP2M1 Cell-Based Assay (in-Cell Western):
The plate was read on Licor Odyssey CLx imaging system (LICOR) to acquire fluorescence intensity at 700 channel and 800 channel.
Data analysis: Fluorescence intensity at 700 channel served as internal standard and 800 channel were normalized with 700 channel.

[2] = biological target: T2, BIKE (amino acids S38-E345) (K320A, K321A) (Homo sapiens, UniProt Q9NSY1, K320A/K321A); assay: BIKE pSENs assay; assay type: biochemical; conditions: class symbols; read-out: BIKE pSENs: IC50
T2 construct: against BIKE (amino acids S38-E345) (K320A, K321A); 6His (N, cleaved yes)
Method: as §1
as §2, with “BIKE” for “This example describes one illustrative method for determining the IC50 of the compounds of the present invention against AAK1 (amino acids T27-A365). AAK1”, “40” for “70”

[3] = class symbols, read-out: AAK1 pSENs: EIC50
[4] = Hela cells co-transfected with AP2M1 and AAK1, 3 hr treatment, class symbols, read-out: AAK1 In-cell Western: IC50

T2 sequence (Q9NSY1 38-345 K320A/K321A): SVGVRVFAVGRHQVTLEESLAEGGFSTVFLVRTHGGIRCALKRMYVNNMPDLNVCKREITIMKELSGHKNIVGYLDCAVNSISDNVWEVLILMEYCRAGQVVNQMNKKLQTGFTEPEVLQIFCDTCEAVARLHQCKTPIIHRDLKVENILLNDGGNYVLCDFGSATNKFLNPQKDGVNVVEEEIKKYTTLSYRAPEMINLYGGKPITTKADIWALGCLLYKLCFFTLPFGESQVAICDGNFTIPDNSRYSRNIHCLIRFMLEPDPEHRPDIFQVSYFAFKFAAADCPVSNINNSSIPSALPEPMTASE
Sequence of AAK1 (Q2M2I8 whole entry): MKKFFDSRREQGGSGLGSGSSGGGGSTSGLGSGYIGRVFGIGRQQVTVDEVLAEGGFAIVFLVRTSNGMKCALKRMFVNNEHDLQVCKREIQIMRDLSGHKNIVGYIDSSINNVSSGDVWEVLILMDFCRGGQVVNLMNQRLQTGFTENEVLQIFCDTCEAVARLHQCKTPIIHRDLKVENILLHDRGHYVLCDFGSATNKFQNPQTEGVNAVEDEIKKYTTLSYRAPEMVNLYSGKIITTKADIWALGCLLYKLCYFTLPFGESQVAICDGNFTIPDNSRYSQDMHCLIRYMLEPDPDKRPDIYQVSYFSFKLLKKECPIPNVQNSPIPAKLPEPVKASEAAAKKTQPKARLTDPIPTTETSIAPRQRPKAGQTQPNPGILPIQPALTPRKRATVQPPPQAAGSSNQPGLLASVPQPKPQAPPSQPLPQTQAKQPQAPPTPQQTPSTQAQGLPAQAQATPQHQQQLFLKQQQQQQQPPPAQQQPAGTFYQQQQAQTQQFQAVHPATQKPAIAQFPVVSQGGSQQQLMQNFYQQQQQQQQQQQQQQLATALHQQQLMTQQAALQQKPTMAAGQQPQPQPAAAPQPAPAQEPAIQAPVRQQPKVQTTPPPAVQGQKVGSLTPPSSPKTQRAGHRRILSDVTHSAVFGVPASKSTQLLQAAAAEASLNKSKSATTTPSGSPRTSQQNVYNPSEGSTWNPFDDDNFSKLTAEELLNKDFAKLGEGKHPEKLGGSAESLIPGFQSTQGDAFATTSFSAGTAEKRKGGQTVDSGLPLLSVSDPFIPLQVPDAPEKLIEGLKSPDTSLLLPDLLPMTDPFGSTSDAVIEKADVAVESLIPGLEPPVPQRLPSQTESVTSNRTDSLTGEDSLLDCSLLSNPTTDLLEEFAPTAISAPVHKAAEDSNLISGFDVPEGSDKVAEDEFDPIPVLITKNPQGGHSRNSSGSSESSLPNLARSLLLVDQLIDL
T1 sequence (Q2M2I8 27-365): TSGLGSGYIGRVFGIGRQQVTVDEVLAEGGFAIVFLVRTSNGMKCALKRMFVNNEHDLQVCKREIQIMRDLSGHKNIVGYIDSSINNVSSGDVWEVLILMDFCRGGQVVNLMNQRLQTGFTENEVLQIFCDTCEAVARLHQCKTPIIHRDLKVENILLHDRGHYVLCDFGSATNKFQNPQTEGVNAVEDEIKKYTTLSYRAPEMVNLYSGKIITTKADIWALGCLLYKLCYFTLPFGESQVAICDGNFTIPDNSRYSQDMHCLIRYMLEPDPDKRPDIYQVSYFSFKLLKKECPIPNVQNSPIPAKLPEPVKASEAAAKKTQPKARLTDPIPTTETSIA

Row | SMILES | pIC50 [1] | pIC50 (AAK1) | pIC50 [2] | pIC50 [1, 3] | pIC50 (AAK1; [4])
1 | CC(C)Oc1ncccc1-c1cnn2ccc(N3CCN(C(=O)OC4(C)COC4)CC3)nc12 [Compound I-1, (3-methyloxetan-3-yl)-4-[3-(2-isopropoxy-3-pyridyl)pyrazolo[1,5-a]pyrimidin-5-yl]piperazine-1-carboxylate] | 6.82 to 7.29 | 5.82 to 6.30 | 5.82 to 6.30 | – | –
2 | CC1(OC(=O)N2CCN(c3ccn4ncc(-c5cccnc5OC5CC5)c4n3)CC2)COC1 [Compound I-2, (3-methyloxetan-3-yl)-4-[3-[2-(cyclopropoxy)-3-pyridyl]pyrazolo[1,5-a]pyrimidin-5-yl]piperazine-1-carboxylate] | – | – | 6.30 to 6.82 | 7.30 to 9.00 | 6.82 to 7.29
3 | COc1ncccc1-c1cnn2ccc(N3CCN(C(=O)OC4CNC(=O)C4)CC3)nc12 (centres unmarked) [Compound I-6, (5-Oxopyrrolidin-3-yl) 4-[3-(2-methoxy-3-pyridyl)pyrazolo[1,5-a]pyrimidin-5-yl]piperazine-1-carboxylate] | – | – | 7.30 to 9.00 | 7.30 to 9.00 | 5.82 to 6.30
4 | O=C1C[C@@H](OC(=O)N2CCN(c3ccn4ncc(-c5cccnc5OC5CC5)c4n3)CC2)CN1 [Compound I-10, [(3R)-5-Oxopyrrolidin-3-yl]-4-[3-[2-(cyclopropoxy)-3-pyridyl]pyrazolo[1,5-a]pyrimidin-5-yl]piperazine-1-carboxylate] | – | – | 6.30 to 6.82 | 7.30 to 9.00 | 5.82 to 6.30
5 | O=C1C[C@H](OC(=O)N2CCN(c3ccn4ncc(-c5cccnc5OC5CC5)c4n3)CC2)CN1 [Compound I-11, [(3S)-5-Oxopyrrolidin-3-yl]-4-[3-[2-(cyclopropoxy)-3-pyridyl]pyrazolo[1,5-a]pyrimidin-5-yl]piperazine-1-carboxylate hydrochloric acid] | – | – | 6.30 to 6.82 | 7.30 to 9.00 | 6.30 to 6.82
6 | CC1(OC(=O)N2CCN(c3ccn4ncc(-c5cccnc5OC5COC5)c4n3)CC2)COC1 [Compound I-18, (3-Methyloxetan-3-yl)-4-[3-[2-(oxetan-3-yloxy)-3-pyridyl]pyrazolo[1,5-a]pyrimidin-5-yl]piperazine-1-carboxylate] | – | – | 5.82 to 6.30 | 7.30 to 9.00 | 6.30 to 6.82
7 | O=C1C[C@H](OC(=O)N2CCN(c3ccn4ncc(-c5cccnc5OC5COC5)c4n3)CC2)CN1 [Compound I-25, [(3S)-5-Oxopyrrolidin-3-yl]4-[3-[2-(oxetan-3-yloxy)-3-pyridyl]pyrazolo[1,5-a]pyrimidin-5-yl]piperazine-1-carboxylate] | – | – | 6.30 to 6.82 | 7.30 to 9.00 | < 5.82
8 | CC(C)Oc1ncccc1-c1cnn2ccc(N3CCN(C(=O)O[C@@H]4CNC(=O)C4)CC3)nc12 [Compound I-26, [(3S)-5-Oxopyrrolidin-3-yl]-4-[3-(2-isopropoxy-3-pyridyl)pyrazolo[1,5-a]pyrimidin-5-yl]piperazine-1-carboxylate] | – | – | 5.82 to 6.30 | 7.30 to 9.00 | 5.82 to 6.30
9 | O=C(O[C@H]1CO[C@H]2OCC[C@H]21)N1CCN(c2ccn3ncc(-c4cccnc4OC4CC4)c3n2)CC1 [Compound I-27, [(3aS,4R,6aR)-2,3,3a,4,5,6a-hexahydrofuro[2,3-b]furan-4-yl]-4-[3-[2-(cyclopropoxy)-3-pyridyl]pyrazolo[1,5-a]pyrimidin-5-yl]piperazine-1-carboxylate] | – | – | 6.30 to 6.82 | 7.30 to 9.00 | 6.30 to 6.82
10 | COC(=O)N1CC(Oc2ncccc2-c2cnn3ccc(N4CCN(C(=O)O[C@@H]5CC(=O)N(CCO)C5)CC4)nc23)C1 [Compound I-84, [(3R)-1-(2-hydroxyethyl)-5-oxo-pyrrolidin-3-yl]4-[3-[2-(1-methoxycarbonylazetidin-3-yl)oxy-3-pyridyl]pyrazolo[1,5-a]pyrimidin-5-yl]piperazine-1-carboxylate] | – | – | – | 6.30 to 6.82 | < 5.82
11 | COC(=O)N1CC(Oc2ncccc2-c2cnn3ccc(N4CCN(C(=O)O[C@@H]5CC(=O)N(CCOCc6ccccc6)C5)CC4)nc23)C1 [Compound I-84-6, [(3R)-1-(2-benzyloxyethyl)-5-oxo-pyrrolidin-3-yl]-4-[3-[2-(1-methoxycarbonyl-azetidin-3-yl)oxy-3-pyridyl]pyrazolo[1,5-a]pyrimidin-5-yl]piperazine-1-carboxylate] | – | – | – | 6.30 to 6.82 | < 5.82
12 | COC(=O)N1CC(Oc2ncccc2-c2cnn3ccc(N4CCN(C(=O)O[C@@H]5CC(=O)N(C6COC6)C5)CC4)nc23)C1 [Compound I-85, [(3R)-1-(oxetan-3-yl)-5-oxo-pyrrolidin-3-yl]-4-[3-[2-(1-methoxycarbonylazetidin-3-yl)oxy-3-pyridyl]pyrazolo[1,5-a]pyrimidin-5-yl]piperazine-1-carboxylate] | – | – | – | 5.82 to 6.30 | < 5.82
13 | Cc1nn2ccc(N3CCN(C(=O)O[C@H]4CC(=O)N(C)C4)CC3)nc2c1-c1cccnc1OC1CC1 [Compound I-108, [(3S)-1-methyl-5-oxo-pyrrolidin-3-yl]-4-[3-[2-(cyclopropoxy)-3-pyridyl]-2-methyl-pyrazolo[1,5-a]pyrimidin-5-yl]piperazine-1-carboxylate] | – | – | – | < 5.82 | < 5.82
14 | CN1C[C@@H](OC(=O)N2CCN(c3nc4c(-c5cccnc5OC5CC5)cnn4cc3O)CC2)CC1=O [Compound I-110, [(3S)-1-methyl-5-oxo-pyrrolidin-3-yl]-4-[3-[2-(cyclopropoxy)-3-pyridyl]-6-hydroxy-pyrazolo[1,5-a]pyrimidin-5-yl]piperazine-1-carboxylate] | – | – | – | < 5.82 | < 5.82
15 | COc1cn2ncc(-c3cccnc3OC3CC3)c2nc1N1CCN(C(=O)O[C@H]2CC(=O)N(C)C2)CC1 [Compound I-110-9, [(3S)-1-methyl-5-oxo-pyrrolidin-3-yl]-4-[3-[2-(cyclopropoxy)-3-pyridyl]-6-methoxy-pyrazolo[1,5-a]pyrimidin-5-yl]piperazine-1-carboxylate] | – | – | – | < 5.82 | < 5.82
16 | Cc1cn2ncc(-c3cccnc3OC3CC3)c2nc1N1CCN(C(=O)O[C@H]2CC(=O)N(C)C2)CC1 [Compound I-111, [(3S)-1-methyl-5-oxo-pyrrolidin-3-yl]-4-[3-[2-(cyclopropoxy)-3-pyridyl]-6-methyl-pyrazolo[1,5-a]pyrimidin-5-yl]piperazine-1-carboxylate] | – | – | – | 5.82 to 6.30 | < 5.82
17 | [2H]C([2H])([2H])N1C[C@@H](OC(=O)N2CCN(c3nc4c(-c5cccnc5OC5CC5)cnn4cc3F)CC2)CC1=O [Compound I-116, [(3S)-5-oxo-1-(trideuteriomethyl)pyrrolidin-3-yl]4-[3-[2-(cyclopropoxy)-3-pyridyl]-6-fluoro-pyrazolo[1,5-a]pyrimidin-5-yl]piperazine-1-carboxylate] | – | – | 6.82 to 7.29 | 7.30 to 9.00 | –
18 | [2H]C([2H])([2H])N1C[C@@H](OC(=O)N2CCN(c3nc4c(-c5cc(F)cnc5OC5CC5)cnn4cc3F)CC2)CC1=O [Compound I-118, [(3S)-5-oxo-1-(trideuteriomethyl)pyrrolidin-3-yl]4-[3-[2-(cyclopropoxy)-5-fluoro-3-pyridyl]-6-fluoro-pyrazolo[1,5-a]pyrimidin-5-yl]piperazine-1-carboxylate] | – | – | 6.82 to 7.29 | 7.30 to 9.00 | –
19 | CN1C[C@@H](OC(=O)N2CCN(c3nc4c(-c5cccnc5OC5CCCCC5)cnn4cc3F)CC2)CC1=O [Compound I-123, [(3S)-1-methyl-5-oxo-pyrrolidin-3-yl]-4-[3-[2-(cyclohexoxy)-3-pyridyl]-6-fluoro-pyrazolo[1,5-a]pyrimidin-5-yl]piperazine-1-carboxylate] | – | – | – | 6.30 to 6.82 | < 5.82
